Laboratory results reported in paper PMC3890288, “Toxicity of Functional Nano-Micro Zinc Oxide Tetrapods: Impact of Cell Culture Conditions, Cellular Age and Material Properties” (PLoS ONE, 2014).
Where two headings read alike, the source gives them in different places.

How the values were obtained:
[1] = tested on: normal human dermal fibroblasts (NHDF); experiment: MTT cell viability (cytotoxicity) assay on NHDF; format: cell-based; details: NHDF P6–P9, 50000 cells/cm^2, 24 h treatment
Description: Normal human dermal fibroblasts (NHDF) (PromoCell, C12300) were cultured in Quantum 333 (PAA, U15-813) supplemented with 1% (v/v) penicillin/streptomycin (PAA, P11–010). NHDF are human primary cells which were isolated from the dermis of juvenile foreskin or adult skin with different origins (PromoCell). For stock cultures, 750000 cells in 20 ml medium were seeded weekly into a T75 flask (Sarstedt) and kept at 37°C and 5% CO2 in a humidified atmosphere. The medium was changed every two to three days. For sub-culturing, cells were trypsinized by Trypsin/EDTA (PAA, L11-659). Cells were counted under the microscope.
Powder of ZnO-T was scaled and brought for each experiment fresh into dispersion with culture medium at an initial concentration of 10 mg/ml. […]
The MTT assay was used to estimate the viability of cells by measuring the production of formazan mainly through the activity of cellular mitochondrial dehydrogenase. Cell viability was determined accordingly as described in already published paper, [64]. […] Production of formazan by viable cells was estimated after 90 min (37°C, 5% CO2) by measuring the absorbance at a wavelength of 570 nm (photometer 340 ATTC, SLT Lab instruments, Germany). […]
NHDF cells (passage numbers: P10–P14) were seeded into clear flat 96-well microtiter plates (Falcon® 3072) at a cell density of 50.000 cells/cm^2. […] Cell viability was analysed 24 h later. […]

[2] = tested on: normal human dermal fibroblasts (NHDF); experiment: MTT cell viability (cytotoxicity) assay on NHDF; format: cell-based; details: 24 h treatment, expressed as Zn, read-out: ZnCl2 EC50±SE as Zn (converted)

[Cl-].[Cl-].[Zn+2] [ZnCl2]
EC50±standard error [1]: 36 ± 1.4 µg/mL
EC50 ([1]; expressed as zinc, read-out: EC50±standard error in Zn^2+): 130 ± 10 µM
EC50 ([2]; P11–P15, 25000 cells/cm^2): 100 µM
EC50 ([2]; P11–P15, 100000 cells/cm^2): 130 µM
EC50 ([2]; P22–P26, 25000 cells/cm^2): 110 µM
EC50 ([2]; P22–P26, 100000 cells/cm^2): 120 µM
